The term pKd denotes −log10 of the Kd, conventionally taken in molar units. Lower therefore signals a large Kd.

This note sets out measurements from US9447156B2, “Methods and compositions for inhibiting neddylation of proteins” (St. Jude Children's Research Hospital, priority 2011, dated 2016).

One assay deals with T1, hDcn3^P (Homo sapiens, UniProt Q8IWE4).
T1 sequence (Q8IWE4 86-304): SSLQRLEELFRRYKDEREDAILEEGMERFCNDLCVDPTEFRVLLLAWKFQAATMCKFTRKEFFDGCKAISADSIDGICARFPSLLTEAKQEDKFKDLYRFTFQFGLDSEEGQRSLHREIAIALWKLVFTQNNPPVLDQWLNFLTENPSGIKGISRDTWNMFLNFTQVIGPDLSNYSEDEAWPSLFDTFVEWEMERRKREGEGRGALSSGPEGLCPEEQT
As to the kind of experiment: ITC binding of peptides to hDcn3^P. The procedure: (§1) Protein samples were buffer matched by desalting over a NAP-5 column (GE Healthcare) into 50 mM Hepes, 125 mM NaCl, 1 mM BME, pH 7.0 (ITC buffer). Peptides were dissolved by weight to a final concentration of 10 mM in ITC buffer and diluted further in ITC buffer as required for the experiments. Measurements were performed using a MicroCal ITC200. hDcn1^P or yDcn1^P were placed into the sample cell at a final concentration of 400 μM at 18° C. The peptide ligands (4 mM) were constantly injected (1.5 μl). The interval time between each injection was 3 minutes and the duration of each injection was 3 seconds. For titrations involving hE1 and yE1, proteins were placed into the sample cell at a final concentration of 25 μM at 22° C. Peptide ligands (250 μM) were constantly injected (2.5 μl). The interval time between each injection was three minutes and the duration of each injection was 5 seconds. For hCul1^ctd-Rbx1:hDcn1^P binding, proteins were buffer matched by desalting over a NAP-5 column in 25 mM Tris, 0.1 M NaCl, 1 mM BME, pH 7.6. hCul1^ctd-Rbx1 was placed into the sample cell at a final concentration of 55 μM at 22° C. hDcn1^P (550 μM) was constantly injected (2.5 μl). The interval time between each injection was 3 minutes and the duration of each injection was 5 seconds. Obtained spectra were evaluated using Origin (V 7.0) to determine heats of binding and Kd values.
(§2) The affinity of various peptides for hDcn1^P, hDcn2^P, hDcn3^P, hDcn4^P, and hDcn5^P was tested using isothermal titration calorimetry as described in Example 1 and is provided in Table 29.

A further assay deals with T2, yDcn1^P (Saccharomyces cerevisiae, UniProt Q12395).
T2 construct: made in house; host or cells: E. coli
T2 sequence (Q12395 70-269): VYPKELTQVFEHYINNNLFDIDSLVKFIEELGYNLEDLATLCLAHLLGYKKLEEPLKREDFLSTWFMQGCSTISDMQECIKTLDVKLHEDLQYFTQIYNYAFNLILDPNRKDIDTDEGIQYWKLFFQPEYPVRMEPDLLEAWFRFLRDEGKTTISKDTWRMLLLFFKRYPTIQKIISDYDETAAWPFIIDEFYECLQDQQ
As to the kind of experiment: ITC binding of Ubc12 peptides to yDcn1^P. Details: species or system S. cerevisiae. To be noted: for ΔH / ΔS: ITC, protein yDcn1^P; for ΔH: change in enthalpy; for ΔS: change in entropy. The method, then:
as §1, with “Measurements were performed using a MicroCal ITC200. hDcn1^P or yDcn1^P were placed into the sample cell at a final concentration of 400 μM at 18° C.” left out, “[…])” for “hDcn1^P (550 μM)”, “seconds.” for “seconds. Obtained spectra were evaluated using Origin (V 7.0) to determine heats of binding and Kd values.”

The target of assay [1] is T3, yE1 for yNedd8 (Ula1Uba3) (Saccharomyces cerevisiae, UniProt Q99344).
T3 construct: made in house; host or cells: E. coli
T3 sequence (Q99344 1-299): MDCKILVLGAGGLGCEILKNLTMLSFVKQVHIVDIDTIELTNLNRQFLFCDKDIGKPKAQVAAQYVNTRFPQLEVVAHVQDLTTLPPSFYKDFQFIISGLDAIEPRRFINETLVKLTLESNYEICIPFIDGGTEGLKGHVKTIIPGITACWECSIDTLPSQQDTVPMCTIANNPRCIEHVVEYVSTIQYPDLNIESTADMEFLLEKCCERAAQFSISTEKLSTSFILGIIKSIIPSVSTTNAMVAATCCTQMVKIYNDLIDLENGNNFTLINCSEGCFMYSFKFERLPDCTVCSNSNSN
T3 sequence (Q12059 1-462 partner): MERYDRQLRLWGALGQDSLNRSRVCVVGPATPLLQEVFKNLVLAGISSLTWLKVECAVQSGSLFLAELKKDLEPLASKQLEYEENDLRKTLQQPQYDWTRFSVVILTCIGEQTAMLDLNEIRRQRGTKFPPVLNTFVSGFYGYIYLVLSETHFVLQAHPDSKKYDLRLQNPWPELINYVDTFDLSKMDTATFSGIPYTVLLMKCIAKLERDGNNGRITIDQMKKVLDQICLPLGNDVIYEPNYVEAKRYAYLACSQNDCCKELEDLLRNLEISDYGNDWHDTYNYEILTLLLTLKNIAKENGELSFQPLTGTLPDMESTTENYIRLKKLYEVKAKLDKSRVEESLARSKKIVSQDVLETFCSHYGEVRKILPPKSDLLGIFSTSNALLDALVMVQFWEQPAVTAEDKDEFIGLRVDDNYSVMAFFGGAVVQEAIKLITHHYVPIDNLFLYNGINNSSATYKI
Put plainly: ITC binding of Ubc12 peptides to yE1. Further details: species or system S. cerevisiae. To be noted: for ΔH / ΔS: ITC, protein yE1; for ΔH: change in enthalpy; for ΔS: change in entropy. The method, then:
as §1, with “Measurements were performed using a MicroCal ITC200. hDcn1^P or yDcn1^P were placed into the sample cell at a final concentration of 400 μM at 18° C.” left out, “[…])” for “hDcn1^P (550 μM)”, “seconds.” for “seconds. Obtained spectra were evaluated using Origin (V 7.0) to determine heats of binding and Kd values.”

The target of the next assay is T4, hDcn1^P (Homo sapiens, UniProt Q96GG9).
T4 construct: hDcn1^P corresponds to residues 62 to the C-terminal residue 259 of hDcn1; GST (cleaved yes); made in house; host or cells: E. coli BL21(DE3)Gold
As to the kind of experiment: ITC binding of Ubc12/Ube2f peptides to hDcn1^P. The note with it: Example 3. The method, then:
as §1, §2

Another assay has as its target T5, hDcn2^P (Homo sapiens, UniProt Q6PH85).
T5 construct: human Dcn1 family members 1-5 (also called DCUND1-DCUND5)
Put plainly: ITC binding of peptides to hDcn2^P. The note with it: Example 3. The procedure:
as §1, §2

The target in another assay is T6, hDcn5^P (Homo sapiens, UniProt Q9BTE7).
T6 construct: human Dcn1 family members 1-5 (also called DCUND1-DCUND5)
T6 sequence (Q9BTE7 47-237): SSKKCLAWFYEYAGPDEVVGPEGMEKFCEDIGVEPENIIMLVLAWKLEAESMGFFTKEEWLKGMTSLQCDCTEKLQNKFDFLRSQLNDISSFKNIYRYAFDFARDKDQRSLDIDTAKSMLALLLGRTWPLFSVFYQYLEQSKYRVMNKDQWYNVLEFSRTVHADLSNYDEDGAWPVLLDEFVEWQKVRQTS
Put plainly: ITC binding of peptides to hDcn5^P. The note with it: Table 29, peptides with amidated carboxy-terminus. The procedure: as §1, with “values. […]” for “values.”

pKd: −log10 of the molar value. No end group written: not given here.

T4 sequence (Q96GG9 62-259): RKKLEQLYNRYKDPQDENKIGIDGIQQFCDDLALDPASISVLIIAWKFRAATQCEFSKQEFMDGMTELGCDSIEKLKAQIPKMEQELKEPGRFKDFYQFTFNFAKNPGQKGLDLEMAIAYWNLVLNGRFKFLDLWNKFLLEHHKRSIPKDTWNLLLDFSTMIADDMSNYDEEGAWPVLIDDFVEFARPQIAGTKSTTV
T5 sequence (Q6PH85 62-259): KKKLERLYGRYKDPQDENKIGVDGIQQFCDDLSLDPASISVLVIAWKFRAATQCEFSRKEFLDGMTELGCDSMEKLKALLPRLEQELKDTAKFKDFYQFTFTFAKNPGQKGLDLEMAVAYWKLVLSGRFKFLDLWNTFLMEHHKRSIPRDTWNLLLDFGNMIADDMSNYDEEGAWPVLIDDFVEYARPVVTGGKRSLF

Consider “hUbe2fAcl-25: N-terminally acetylated human Ube2f residues 1-25 (Ac-MLTLASKLKRDDGLKGSRTAATASD-NH2)”, for which, in the assay with hDcn3^P (Example 3), the “affinity for Dcn3 (comparison in words)” value was “greatest affinity” and the “binding specificity for Dcn3 over other co-E3 proteins” value was “fairly specific”.

On to “H-MLKLRQLQKKKQKENENSSSIQPN-NH2 [yUbc12^1-24]”, for which, at yDcn1^P, the pKd was under 4.40, the ΔH is given as 3,777 cal/mol and the ΔS is recorded as 33.4 cal/mol/deg. In addition, in assay [1], the pKd was 7.15, the ΔH was −8,571 cal/mol and the ΔS is on record as 2.65 cal/mol/deg.

With “Ac-MLKLRQLQKKKQKENENSSSIQPN-NH2 [yUbc12Ac1-24]”, the “affinity for Dcn1 (comparison in words)” value on hDcn1^P is “greatest affinity”. Moreover, on yDcn1^P, the ΔH was 4,145 cal/mol and the ΔS was found to be 43.6 cal/mol/deg. In assay [1], the pKd is 7.80, the ΔH was −11,260 cal/mol and the ΔS is recorded as −3.8 cal/mol/deg. In addition, the “affinity for Dcn2 (comparison in words)” value at hDcn2^P is listed as “greatest affinity”.

Take “hUbc12Ac1-26: N-terminally acetylated peptide of residues 1-26 of human Ubc12 (Ac-MIKLFSLKQQKKEEESAGGTKGSSKK-NH2)”: in the assay with hDcn1^P, the “affinity for Dcn1 (comparison in words)” value is given as “greatest affinity”. Moreover, the “affinity for Dcn2 (comparison in words)” value in the assay with hDcn2^P was “greatest affinity”.

As to “Ac-LKLRQLQKKKQKENENSSSIQPN-NH2 [Acetyl-yUbc12^2-24]”, on yDcn1^P, the pKd is under 4.43, the ΔH was 3,761 cal/mol and the ΔS was determined as 33.4 cal/mol/deg. Also, in assay [1], the pKd is 5.80, the ΔH was −9,625 cal/mol and the ΔS is −7.21 cal/mol/deg.

The compound `CC[C@H](C)[C@H](NC(=O)[C@H](CCSC)NC(C)=O)C(=O)N[C@@H](CCCCN)C(=O)N[C@@H](CC(C)C)C(=O)N[C@@H](Cc1ccccc1)C(=O)N[C@@H](CO)C(=O)N[C@@H](CC(C)C)C(=O)N[C@@H](CCCCN)C(=O)N[C@@H](CCC(N)=O)C(=O)N[C@@H](CCC(N)=O)C(=O)N[C@@H](CCCCN)C(=O)N[C@@H](CCCCN)C(N)=O` [hUbc12^Ac1−12] had a pKd on hDcn5^P of under 4.52.

With “MLTLASKLKRDDGLKGSRTAATASD-NH2 [hUbe2f^1−25]”, the negative-log Kd (pKd) on hDcn3^P (Table 29, peptides with amidated carboxy-terminus) was under 3.40.
